Results as given in BindingDB's records for doi:10.1016/j.bmc.2007.07.054 (Yeungnam University, 2007).

Assays:
[1] = target: T1, Group 10 secretory phospholipase A2 (Homo sapiens, UniProt O15496); test: Inhibition of human cloned sPLA2-10 expressed in HEK293 cells
T1 sequence (O15496 whole entry): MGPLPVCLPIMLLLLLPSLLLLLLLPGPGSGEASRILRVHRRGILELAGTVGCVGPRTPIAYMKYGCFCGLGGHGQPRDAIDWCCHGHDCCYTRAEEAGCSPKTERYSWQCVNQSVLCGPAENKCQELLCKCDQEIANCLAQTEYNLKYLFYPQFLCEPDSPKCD

Phospholipase A2 = Phospholipase A2 (Rattus norvegicus, UniProt P04055); test: Inhibition of rat cloned sPLA2-1B expressed in HEK293 cells
[2] = target: T2, Cytosolic phospholipase A2 (Homo sapiens, UniProt P47712); test: Inhibition of human cloned cPLA2 expressed in HEK293 cells
T2 sequence (P47712 whole entry): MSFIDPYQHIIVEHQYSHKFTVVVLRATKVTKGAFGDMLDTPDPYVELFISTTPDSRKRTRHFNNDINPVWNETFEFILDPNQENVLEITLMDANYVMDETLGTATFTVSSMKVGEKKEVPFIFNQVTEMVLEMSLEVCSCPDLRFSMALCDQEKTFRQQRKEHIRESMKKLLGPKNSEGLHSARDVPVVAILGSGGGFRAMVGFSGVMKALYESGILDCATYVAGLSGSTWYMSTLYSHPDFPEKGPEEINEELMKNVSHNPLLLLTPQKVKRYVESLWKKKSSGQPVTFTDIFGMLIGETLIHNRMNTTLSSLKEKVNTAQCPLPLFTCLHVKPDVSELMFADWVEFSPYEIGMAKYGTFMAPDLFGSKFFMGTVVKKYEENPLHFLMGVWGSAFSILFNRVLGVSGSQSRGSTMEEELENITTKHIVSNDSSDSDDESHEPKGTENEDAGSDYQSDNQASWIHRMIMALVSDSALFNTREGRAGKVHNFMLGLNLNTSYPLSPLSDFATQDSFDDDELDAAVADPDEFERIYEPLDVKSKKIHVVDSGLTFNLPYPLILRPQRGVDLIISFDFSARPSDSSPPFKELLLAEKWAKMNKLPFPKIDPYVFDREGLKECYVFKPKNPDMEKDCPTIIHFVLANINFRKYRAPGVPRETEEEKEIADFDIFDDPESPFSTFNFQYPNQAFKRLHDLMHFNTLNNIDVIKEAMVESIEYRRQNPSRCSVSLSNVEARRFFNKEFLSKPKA

Phospholipase A2, sequence (P04055 whole entry): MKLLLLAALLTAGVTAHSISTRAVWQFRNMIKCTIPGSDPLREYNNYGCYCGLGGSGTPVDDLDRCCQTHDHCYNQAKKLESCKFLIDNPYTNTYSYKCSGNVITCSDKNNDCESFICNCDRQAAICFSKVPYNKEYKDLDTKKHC

IC50 [1] [µM] | IC50 (Phospholipase A2) [µM] | IC50 [2] [µM] | SMILES
> 100 | > 100 | > 100 | O=c1cc(O)cc2oc(-c3ccc(O)c(-c4c(O)cc(O)c5c(=O)cc(-c6ccc(O)cc6)oc45)c3)cc(O)c1-2
> 100 | > 100 | > 100 | O=c1cc(O)cc2oc(-c3ccc(Oc4cc(-c5cc(O)c6c(=O)cc(O)cc-6o5)ccc4O)cc3)cc(O)c1-2
